Assay results taken from patent US6124136A, “Method of monitoring compliance with methadone treatment program” (U. D. Testing, Inc., priority 1993, dated 2000).
Several values for one entry are separate records, joined by “and”; a condition that tells them apart may be missing. Identical values can stand only once.

Experiments:
[1] = Renal clearance / renal excretion of methadone from timed urine collections; settings: as a function of urine volume production rate; 12 control subjects
[2] = Clinical course of migraine/headache in chronic pain patients (Cases #1 and #2); format: in vivo, human
[3] = Plasma methadone concentration versus daily oral methadone dose (FIG. 6, 8300 urine samples from 150 patients); settings: human, 70 mg/day
[4] = tested on: mu-receptor subfamily of opioid cell membrane binding/transduction sites; settings: cited from earlier work
[5] = Plasma methadone concentration, p, calculated from spot urine (urine methadone, pH and specific gravity); settings: patient one, Tables 3 and 4, barbiturate-containing compounds discontinued
[6] = Urinary parameter-normalized urine methadone concentration, nu

CCC(=O)C(CC(C)N(C)C)(c1ccccc1)c1ccccc1 (centres unmarked) [methadone]
renal excretion rate during a typical day [1]: relatively constant
stress-related headaches ([2]; patient one, 130 mg per day): slowly decreasing in severity and frequency
migraines ([2]; patient one, stabilized on 130 mg per day, plasma level above 135 ng/ml): ceased completely
migraine frequency and severity ([2]; patient two, gradual titration to 35 mg of methadone): slowly decayed in frequency and severity
concentration at 24 h [3]: 200 ng/mL
action at mu-receptor [4]: potent, and nearly pure (no interfering metabolites), agonist
plasma methadone levels over time [5]: increased in this patient over time
urinary parameter-normalized urine methadone concentration, nu ([6]; Table 1, compliant patient, dose 60): 7448 and 9473
urinary parameter-normalized urine methadone concentration, nu, mean ([6]; Table 1, mean of 12 tests, dose 60-70): 7427
urinary parameter-normalized urine methadone concentration, nu, mean ([6]; Table 2, patient two, mean of 12 tests, dose 45): 17936
urinary parameter-normalized urine methadone concentration, nu ([6]; Table 3, patient one (prior barbiturate use), 1991, dose 50): 2924
urinary parameter-normalized urine methadone concentration, nu ([6]; Table 3, patient one (prior barbiturate use), 1991, dose 65): 1367 and 911
urinary parameter-normalized urine methadone concentration, nu ([6]; Table 3, patient one (prior barbiturate use), 1991, dose 80): 1070
urinary parameter-normalized urine methadone concentration, nu, mean ([6]; Table 3, patient one, mean of 12 tests, dose 40-100): 1591
urinary parameter-normalized urine methadone concentration, nu ([6]; Table 4, patient one, barbiturates discontinued, 1992, dose 110): 6580 and 6703 and 10880 and 6025
urinary parameter-normalized urine methadone concentration, nu ([6]; Table 4, patient one, barbiturates discontinued, 1992, dose 120): 8970 and 6778 and 8074 and 11966 and 6031
urinary parameter-normalized urine methadone concentration, nu ([6]; Table 4, patient one, barbiturates discontinued, 1992, dose 130): 7728 and 5944 and 5117
urinary parameter-normalized urine methadone concentration, nu, mean ([6]; Table 4, patient one, mean of 12 tests, dose 110-130): 7566
urinary parameter-normalized urine methadone concentration, nu, mean ([6]; Table 6, Case #4, mean, dose 120-140): 6874
Pred (flag: nu outside acceptable statistical range) ([6]; Table 6, Case #4, dose 140): High
urinary parameter-normalized urine methadone concentration, nu, mean ([6]; Table 7, Case #5, mean of 13 tests, dose 130): 14502
Pred (flag: nu outside acceptable statistical range) ([6]; Table 7, Case #5, dose 130): LOW and HIGH

Oc1ccc2c3c1O[C@H]1[C@@H](O)CC[C@@]4(O)[C@@H](C2)N(CC2CCC2)CC[C@]314 [nalbuphine]
control of pain ([2]; patient one, self-administered IM, before methadone): failure
